Test results as given in patent US20240308998A1, “PYRROLOPYRIDONE DERIVATIVES USEFUL IN THE TREATMENT OF CANCER” (Tay Therapeutics Limited, priority 2021, published 2024).
Where a name gives a salt, the structure may show the parent alone.

Assays:
[1] = molecular target: T1, BRD4 BD1 (Homo sapiens, UniProt O60885); assay: NanoBRET bromodomain assay, BRD4 BD1; type: cell-based; details: HEK293 cells transfected with NanoLuc-BRD4-BD1
T1 construct: HEK293 cells were transfected using NanoLuc-BRD4-BD1 or NanoLuc-BRD4-BD2 fusion vectors; host or cells: HEK293
Procedure, shortened: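 Transfected HEK293 cells expressing NanoLuc-BRD4-BD1 were incubated with 1x tracer and serially diluted compound for 2 h at 37 °C, then given Nano-Glo substrate plus extracellular NanoLuc inhibitor. Donor 450 nm and acceptor 610 nm emissions were converted to background-corrected mBU, and IC50 was derived by nonlinear regression.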

[2] = Intrinsic clearance in mouse liver microsomes; type: in vitro ADME; details: 1 uM, NADPH
Protocol: (§1) A 50 mM stock solution (in DMSO) was prepared for the compound. From the stock solution, a working solution of 0.5 mM was prepared by diluting the compound in DMSO. This concentration of working solution was prepared considering a final concentration of 1 uM with 0.1% DMSO. The compound (1 uL of working solution) was spiked in PBS with pH 7.4 (22 uL) at a concentration of 1 uM. Subsequently, 110 uL of 10 mM NADPH was added (as a co-factor). The sample was incubated at 37° C. for 15 min. Following this, pre-warmed mouse liver microsomes (27.5 uL; final protein conc. 0.5 mg/mL) were added. The samples were then incubated at 37° C. Aliquots of samples were withdrawn at 0, 5, 15, 30, 45 and 60 min. The reaction was stopped by using chilled acetonitrile containing internal standard. The samples were centrifuged and the supernatants analysed by LC-MS/MS. The percent compound remaining at each time point was calculated with respect to that of the 0 min sample. The data were then analysed to calculate half-life and intrinsic clearance (CLint). Note that control samples were run without NADPH and blank samples were prepared using DMSO without the test compound.

[3] = Mouse plasma stability; type: in vitro ADME; details: 10 μM in mouse plasma, 37° C.
Protocol: The stock solution of compound (10 or 50 mM) was prepared in DMSO. From the stock solution, a working solution of compound (500 uM) was prepared in DMSO (100%). To 735 μL of mouse plasma, 15 μL of working solution of compound was added—resulting in a final concentration of 10 μM (2% DMSO) for the compound. The sample was then incubated at 37° C. Aliquot was withdrawn at time-points—0, 15, 30, 60, 90 and 120 mins. The reaction was stopped by using chilled acetonitrile containing internal standard (IS). The samples were centrifuged and the supernatants analyzed using LC-MS/MS. The percent remaining of the compound at each time point was calculated with respect to the control sample (0 min time-point).

[4] = molecular target: T2, BRD4 BD2 (Homo sapiens, UniProt O60885); assay: NanoBRET bromodomain assay, BRD4 BD2; type: cell-based; details: for Fold selectivity BRD4 BD1/BD2: IC50 BD1/IC50 BD2; for IC50: NanoBRET, HEK293 cells transfected with NanoLuc-BRD4-BD2
T2 construct: HEK293 cells were transfected using NanoLuc-BRD4-BD1 or NanoLuc-BRD4-BD2 fusion vectors; host or cells: HEK293
Procedure, shortened: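 HEK293 cells transfected with NanoLuc-BRD4-BD2 fusion for 20-24 h, then treated with compound plus 1x tracer for 2 h at 37° C. Donor 450 nm / acceptor 610 nm emissions converted to background-corrected mBU; IC50 by nonlinear regression; selectivity as IC50 BD1/IC50 BD2.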

[5] = Intrinsic clearance in rat liver microsomes; type: in vitro ADME; details: pH 7.4, NADPH, read-out: Rat Microsomal Stability T½
Protocol: as §1, with “pre-warmed rat” for “pre-warmed mouse”, “calculate half-life.” for “calculate half-life and intrinsic clearance (CLint).”, “test Compound.” for “test compound.”

[6] = Balb/c mouse pharmacokinetics after oral (PO) dosing; type: in vivo; details: male, plasma, 5 mg/kg, Casette
Protocol: Compounds were formulated in 5% DMSO, 40% PEG-400, 55% Milli-Q water at a concentration of 0.5 mg/mL for 5 mg/kg and 3 mg/mL for 30 mg/kg PO dosing. […] Blood was sampled at various timepoints and plasma isolated. 10 μL of plasma with 5 μL of blank Balb/c mouse plasma were added to 200 μL of acetonitrile containing IS mixture. The samples were vortexed for 30 s. After centrifugation at 4 degree Celsius, 3900 rpm for 15 min, the supernatant was diluted 3 times with water. 20 μL of diluted supernatant was injected into the LC/MS/MS system for quantitative analysis and concentration of analyte determined by comparison with matrix matched standard curve. WinNonlin (Phoenix™, version 8.3) or other similar software was used for pharmacokinetic calculations.

| SMILES | IC50 [1] | Mouse Microsomal Stability (intrinsic clearance) [2] | Mouse Plasma Stability % remaining at 120 minutes [3] | Fold selectivity BRD4 BD1/BD2 [4] | IC50 [4] | half-life at 1 uM [5] | Cmax [6] | bioavailability [6] |
| --- | --- | --- | --- | --- | --- | --- | --- | --- |
| Cc1cnc(-c2cc3c(-c4cc(=O)n(C)cc4Oc4c(C)cccc4C)cn(C)c(=O)c3[nH]2)[nH]1 [Example 1, 4-(5-(2,6-dimethylphenoxy)-1-methyl-2-oxo-1,2-dihydropyridin-4-yl)-6-methyl-2-(5-methyl-1H-imidazol-2-yl)-1,6-dihydro-7H-pyrrolo [2,3-c] pyridin-7-one] | > 1000 nM | 0.7 ml/min/g liver | 95% | xxx (Fold >200) | ≤ 50 nM | – | – | – |
| Cc1cccc(C)c1Oc1cn(C)c(=O)cc1-c1cn(C)c(=O)c2[nH]c(C3=NCCN3)cc12 [Example 4, 2-(4,5-dihydro-1H-imidazol-2-yl)-4-(5-(2,6-dimethylphenoxy)-1-methyl-2-oxo-1,2-dihydropyridin-4-yl)-6-methyl-1,6-dihydro-7H-pyrrolo[2,3-c]pyridin-7-one] | > 1000 nM | 0.6 ml/min/g liver | – | x (Fold >2 and ≤50) | 200 to 1000 nM | – | – | – |
| Cc1cc(-c2cc3c(-c4cc(=O)n(C)cc4Oc4c(C)cccc4C)cn(C)c(=O)c3[nH]2)n(C)n1 [Example 7, 2-(1,3-dimethyl-1H-pyrazol-5-yl)-4-(5-(2,6-dimethylphenoxy)-1-methyl-2-oxo-1,2-dihydropyridin-4-yl)-6-methyl-1,6-dihydro-7H-pyrrolo[2,3-c] pyridin-7-one] | > 1000 nM | – | 84% | xxx (Fold >200) | ≤ 50 nM | > 1 h | – | – |
| Cc1cccc(C)c1Oc1cn(C)c(=O)cc1-c1cn(C)c(=O)c2[nH]c(-c3ccccc3F)cc12 [Example 14, 4-(5-(2,6-dimethylphenoxy)-1-methyl-2-oxo-1,2-dihydropyridin-4-yl)-2-(2-fluorophenyl)-6-methyl-1,6-dihydro-7H-pyrrolo[2,3-c] pyridin-7-one] | > 1000 nM | – | 99% | xxx (Fold >200) | ≤ 50 nM | > 1 h | – | – |
| Cc1cc(-c2cc3c(-c4cc(=O)n(C)cc4Oc4c(C)cccc4C)cn(C)c(=O)c3[nH]2)cc(C)n1 [Example 17, 4-(5-(2,6-dimethylphenoxy)-1-methyl-2-oxo-1,2-dihydropyridin-4-yl)-2-(2,6-dimethylpyridin-4-yl)-6-methyl-1,6-dihydro-7H-pyrrolo[2,3-c] pyridin-7-one.TFA] | > 1000 nM | – | 42% | xxx (Fold >200) | ≤ 50 nM | > 1 h | – | – |
| Cc1cccc(C)c1Oc1cn(C)c(=O)cc1-c1cn(C)c(=O)c2[nH]c(-c3ncc(C(F)(F)F)[nH]3)cc12 [Example 3, 4-(5-(2,6-dimethylphenoxy)-1-methyl-2-oxo-1,2-dihydropyridin-4-yl)-6-methyl-2-(5-(trifluoromethyl)-1H-imidazol-2-yl)-1,6-dihydro-7H-pyrrolo[2,3-c] pyridin-7-one] | > 1000 nM | 0.5 ml/min/g liver | 77% | xxx (Fold >200) | ≤ 50 nM | – | – | – |
| CCNC(=O)c1cc2c(-c3ccn(C)c(=O)c3Oc3c(C)cc(F)cc3C)cn(C)c(=O)c2[nH]1 [Comparative Example A, reference compound] | > 1000 nM | 0.9 ml/min/g liver | 7% | xx (Fold >50 and ≤200) | 50 to 200 nM | – | – | – |
| Cc1cc(F)cc(C)c1Oc1c(-c2cn(C)c(=O)c3[nH]c(C(=O)NC(C)(C)C)cc23)ccn(C)c1=O [Comparative Example B, reference compound] | – | 5.1 ml/min/g liver | 100% | – | – | – | – | – |
| Cc1cccc(C)c1Oc1cn(C)c(=O)cc1-c1cn(C)c(=O)c2[nH]c(-c3cn(C(C)C)nc3C#N)cc12 [Example 49, 4-{4-[5-(2,6-dimethylphenoxy)-1-methyl-2-oxopyridin-4-yl]-6-methyl-7-oxo-1H-pyrrolo[2,3-c]pyridin-2-yl}-1-isopropylpyrazole-3-carbonitrile] | 50 to 500 nM | – | – | xx (Fold >50 and ≤200) | ≤ 50 nM | – | 19.3 ng/mL | 7.81% |
| CC(C)n1cc(-c2cc3c(-c4cc(=O)n(C)cc4-c4ccccc4)cn(C)c(=O)c3[nH]2)cn1 [Example 61, 4-[2-(1-isopropylpyrazol-4-yl)-6-methyl-7-oxo-1H-pyrrolo[2,3-c]pyridin-4-yl]-1-methyl-5-phenylpyridin-2-one] | > 1000 nM | – | – | xxx (Fold >200) | ≤ 50 nM | – | 622 ng/mL | 51.2% |
| Cc1cccc(C)c1Oc1cn(C)c(=O)cc1-c1cn(C)c(=O)c2[nH]c(-c3cnn(C(C)C)c3)cc12 [Example 11, 4-(5-(2,6-dimethylphenoxy)-1-methyl-2-oxo-1,2-dihydropyridin-4-yl)-2-(1-isopropyl-1H-pyrazol-4-yl)-6-methyl-1,6-dihydro-7H-pyrrolo[2,3-c] pyridin-7-one] | 50 to 500 nM | – | 98% | xx (Fold >50 and ≤200) | ≤ 50 nM | > 1 h | – | – |
| Cc1cccc(C)c1Oc1cn(C)c(=O)cc1-c1cn(C)c(=O)c2[nH]c(-c3cccc(F)c3F)cc12 [Example 50, 4-[2-(2,3-difluorophenyl)-6-methyl-7-oxo-1H-pyrrolo[2,3-c]pyridin-4-yl]-5-(2,6-dimethylphenoxy)-1-methylpyridin-2-one] | > 1000 nM | – | – | xxx (Fold >200) | ≤ 50 nM | – | 293 ng/mL | 73% |
| Cc1cnc(-c2cc3c(-c4cc(=O)n(C)cc4-c4ccccc4)cn(C)c(=O)c3[nH]2)[nH]1 [Example 5, 6-methyl-2-(5-methyl-1H-imidazol-2-yl)-4-(1-methyl-2-oxo-5-phenyl-1,2-dihydropyridin-4-yl)-1,6-dihydro-7H-pyrrolo [2,3-c] pyridin-7-one] | > 1000 nM | 0.6 ml/min/g liver | – | xx (Fold >50 and ≤200) | 50 to 200 nM | – | – | – |
